Source: the NIST ThermoML archive (doi:10.1016/j.jct.2008.07.010)

Assay: xn = mol fraction of the nth substance listed
Conditions: 101 kPa, Liquid; for viscosity: Capillary tube (Ostwald / Ubbelohde) method; for speed of sound: Sing-around technique in a fixed-path interferometer; for mass density: Vibrating tube method

CC(C)CCCC(C)CCCC(C)CCCCC(C)CCCC(C)CCCC(C)C (stereo not given) [2,6,10,15,19,23-hexamethyltetracosane] + CC(C)O
Conditions | mass density, 298.15 K [kg/m3] | mass density, 303.15 K [kg/m3] | mass density, 308.15 K [kg/m3] | speed of sound, 298.15 K [m/s] | speed of sound, 303.15 K [m/s] | speed of sound, 308.15 K [m/s] | viscosity, 298.15 K [mPa·s] | viscosity, 303.15 K [mPa·s] | viscosity, 308.15 K [mPa·s]
x2 = 0 | 805.122 | 801.912 | 798.709 | 1381.9 | 1364.1 | 1346.5 | 28.26 | 22.09 | 17.77
x2 = 0.0621 | 804.504 | 801.238 | 797.982 | 1377.4 | 1359.1 | 1341.4 | 24.12 | 18.75 | 15.29
x2 = 0.0949 | 804.196 | 800.909 | 797.625 | 1374.9 | 1356.8 | 1338.9 | 22.69 | 17.69 | 14.48
x2 = 0.1438 | 803.771 | 800.451 | 797.133 | 1371.4 | 1353.3 | 1335.5 | 21.22 | 16.63 | 13.66
x2 = 0.218 | 803.155 | 799.796 | 796.425 | 1366 | 1347.9 | 1330 | 19.65 | 15.45 | 12.74
x2 = 0.2865 | 802.572 | 799.185 | 795.767 | 1360.2 | 1342.2 | 1324.2 | 18.5 | 14.56 | 12.03
x2 = 0.3119 | 802.336 | 798.955 | 795.521 | 1358.2 | 1340 | 1321.9 | 18.11 | 14.24 | 11.76
x2 = 0.4022 | 801.467 | 798.03 | 794.563 | 1349.5 | 1331.3 | 1313.3 | 16.68 | 13.05 | 10.84
x2 = 0.5142 | 800.109 | 796.619 | 793.069 | 1336.4 | 1318.1 | 1299.9 | 14.34 | 11.37 | 9.424
x2 = 0.5952 | 798.83 | 795.275 | 791.676 | 1324.5 | 1306.4 | 1288.1 | 11.77 | 9.455 | 7.904

CCCCCCCCCCCCCCCC [hexadecane] + CC(C)O
Conditions | mass density, 298.15 K [kg/m3] | mass density, 303.15 K [kg/m3] | mass density, 308.15 K [kg/m3] | speed of sound, 298.15 K [m/s] | speed of sound, 303.15 K [m/s] | speed of sound, 308.15 K [m/s] | viscosity, 298.15 K [mPa·s] | viscosity, 303.15 K [mPa·s] | viscosity, 308.15 K [mPa·s]
x2 = 0 | 770.456 | 766.981 | 763.52 | 1338.6 | 1320 | 1301.7 | 3.041 | 2.706 | 2.409
x2 = 0.0441 | 770.067 | 766.622 | 763.106 | 1334.2 | 1315.5 | 1297.1 | 2.867 | 2.521 | 2.231
x2 = 0.1285 | 769.792 | 766.198 | 762.606 | 1325.5 | 1306.8 | 1288.2 | 2.654 | 2.312 | 2.034
x2 = 0.1617 | 769.728 | 766.093 | 762.479 | 1321.8 | 1302.9 | 1284.7 | 2.601 | 2.264 | 1.989
x2 = 0.2294 | 769.59 | 765.938 | 762.287 | 1314.8 | 1295.9 | 1277.2 | 2.531 | 2.214 | 1.944
x2 = 0.2707 | 769.56 | 765.896 | 762.206 | 1310.1 | 1291.2 | 1272.5 | 2.504 | 2.199 | 1.928
x2 = 0.332 | 769.565 | 765.88 | 762.156 | 1303.1 | 1284.1 | 1265.6 | 2.47 | 2.176 | 1.92
x2 = 0.414 | 769.697 | 765.976 | 762.174 | 1293.5 | 1274.5 | 1255.6 | 2.43 | 2.153 | 1.904
x2 = 0.5064 | 770.039 | 766.23 | 762.374 | 1280.3 | 1261.3 | 1242.7 | 2.36 | 2.08 | 1.843
x2 = 0.6119 | 770.701 | 766.793 | 762.751 | 1263.2 | 1244.4 | 1225.5 | 2.242 | 1.95 | 1.719
x2 = 0.7008 | 771.594 | 767.564 | 763.551 | 1245.9 | 1227.1 | 1208.2 | 2.123 | 1.821 | 1.599
x2 = 0.762 | 772.47 | 768.35 | 764.298 | 1231.6 | 1212.9 | 1194 | 2.051 | 1.723 | 1.51
x2 = 0.8419 | 774.082 | 769.888 | 765.761 | 1208.4 | 1189.9 | 1171.2 | 1.974 | 1.628 | 1.418
x2 = 0.9188 | 776.284 | 772.263 | 768.061 | 1180 | 1161.6 | 1143.6 | 1.96 | 1.608 | 1.419
x2 = 0.9498 | 777.915 | 773.694 | 769.382 | 1166.2 | 1148.3 | 1130.3 | 1.983 | 1.647 | 1.454
